In patent US20250064941A1, “SIGLEC LIGANDS, CONJUGATES, AND METHODS OF USE THEREOF” (Osprey Biopharmaceuticals, Inc., priority 2023, published 2025) one finds Kd data, which are given here for eleven molecules.

For test [1], the target named is T1, human Siglec-2/CD22 protein (Homo sapiens, UniProt P20273).
T1 construct: purchased Acro Biosystems SI2-H82E3
T1 sequence (P20273 20-847): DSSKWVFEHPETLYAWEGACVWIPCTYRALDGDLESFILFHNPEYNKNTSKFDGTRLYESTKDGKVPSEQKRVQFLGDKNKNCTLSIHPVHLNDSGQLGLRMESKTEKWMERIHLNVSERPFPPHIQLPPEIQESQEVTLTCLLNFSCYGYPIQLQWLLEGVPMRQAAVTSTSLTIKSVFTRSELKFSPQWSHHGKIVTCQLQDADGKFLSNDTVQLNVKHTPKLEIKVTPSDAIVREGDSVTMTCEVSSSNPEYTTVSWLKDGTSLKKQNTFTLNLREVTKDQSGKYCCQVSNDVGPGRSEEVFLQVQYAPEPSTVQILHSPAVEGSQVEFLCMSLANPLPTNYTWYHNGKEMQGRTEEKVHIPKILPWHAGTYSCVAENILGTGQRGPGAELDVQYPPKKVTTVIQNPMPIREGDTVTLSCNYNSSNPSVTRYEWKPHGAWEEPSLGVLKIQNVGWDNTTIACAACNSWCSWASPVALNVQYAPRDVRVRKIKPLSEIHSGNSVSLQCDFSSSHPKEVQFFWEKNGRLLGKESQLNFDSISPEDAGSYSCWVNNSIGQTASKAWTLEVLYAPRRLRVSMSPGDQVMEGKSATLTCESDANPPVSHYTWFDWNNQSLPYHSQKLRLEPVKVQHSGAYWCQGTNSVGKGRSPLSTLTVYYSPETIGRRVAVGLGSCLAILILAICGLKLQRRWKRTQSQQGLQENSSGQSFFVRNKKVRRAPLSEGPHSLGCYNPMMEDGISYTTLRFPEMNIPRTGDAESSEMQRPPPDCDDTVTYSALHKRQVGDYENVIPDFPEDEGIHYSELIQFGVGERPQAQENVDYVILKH
The test is described as follows: SPR binding affinity to human CD22. As to conditions: steady-state analysis. The gist of the method: (§1)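 SialoExo pretreatment, 4 h 37° C.; biotinylated CD22 on SA chip, Biacore 8K. Buffer 10 mM HEPES, 150 mM NaCl, 0.05% Tween-20, pH 7.5, 1% DMSO. Dissociation 120 s; solvent-corrected; steady-state KD.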
(In general: In SPR one partner is held on a chip, and binding of the other changes the refractive index at the surface.)

In test [2] the target is T2, mouse Siglec-2-Fc-Avi (CD22) (Mus musculus, UniProt P35329).
T2 construct: made in house
T2 sequence (P35329 22-708 limits assumed): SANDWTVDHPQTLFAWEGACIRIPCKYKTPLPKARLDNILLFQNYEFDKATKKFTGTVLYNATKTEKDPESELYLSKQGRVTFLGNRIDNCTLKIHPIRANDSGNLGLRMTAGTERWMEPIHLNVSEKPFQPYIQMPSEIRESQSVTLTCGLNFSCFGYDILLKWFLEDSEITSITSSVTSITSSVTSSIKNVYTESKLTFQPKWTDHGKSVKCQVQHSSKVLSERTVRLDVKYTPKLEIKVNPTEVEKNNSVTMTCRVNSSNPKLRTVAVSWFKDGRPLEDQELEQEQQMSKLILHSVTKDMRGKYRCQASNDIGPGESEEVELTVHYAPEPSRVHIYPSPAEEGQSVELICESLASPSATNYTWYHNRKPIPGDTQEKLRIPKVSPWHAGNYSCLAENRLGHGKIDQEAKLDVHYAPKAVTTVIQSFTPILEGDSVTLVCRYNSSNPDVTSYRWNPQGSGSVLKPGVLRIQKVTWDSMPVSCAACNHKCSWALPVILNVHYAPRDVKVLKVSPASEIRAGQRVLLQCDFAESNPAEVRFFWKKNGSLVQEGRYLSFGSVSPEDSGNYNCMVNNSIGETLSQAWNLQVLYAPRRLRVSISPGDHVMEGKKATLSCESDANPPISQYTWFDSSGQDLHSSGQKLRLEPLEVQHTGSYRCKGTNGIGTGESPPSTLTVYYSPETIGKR
Put plainly: SPR binding affinity to mouse CD22. Particulars: steady-state analysis. The gist of the method: as §1

For a further test, the target named is cynomolgus Siglec-2/CD22 (Macaca fascicularis, UniProt A0A2K5WCZ6). The test is described as follows: biochemical. It counts as binding. As to conditions: SPR, steady-state analysis; read-out: Affinity cyno CD22. An outline of the steps:
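Compound binding measured by steady-state SPR analysis, 120 s dissociation, in HEPES-NaCl-Tween buffer pH 7.5 containing 1% DMSO, DMSO solvent-corrected. Surface: cyno CD22, sialic acids first stripped by SialoExo for 4 h at 37° C., then amine-coupled onto CM5.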

Chain of cynomolgus Siglec-2/CD22 (A0A2K5WCZ6 entry or part of it): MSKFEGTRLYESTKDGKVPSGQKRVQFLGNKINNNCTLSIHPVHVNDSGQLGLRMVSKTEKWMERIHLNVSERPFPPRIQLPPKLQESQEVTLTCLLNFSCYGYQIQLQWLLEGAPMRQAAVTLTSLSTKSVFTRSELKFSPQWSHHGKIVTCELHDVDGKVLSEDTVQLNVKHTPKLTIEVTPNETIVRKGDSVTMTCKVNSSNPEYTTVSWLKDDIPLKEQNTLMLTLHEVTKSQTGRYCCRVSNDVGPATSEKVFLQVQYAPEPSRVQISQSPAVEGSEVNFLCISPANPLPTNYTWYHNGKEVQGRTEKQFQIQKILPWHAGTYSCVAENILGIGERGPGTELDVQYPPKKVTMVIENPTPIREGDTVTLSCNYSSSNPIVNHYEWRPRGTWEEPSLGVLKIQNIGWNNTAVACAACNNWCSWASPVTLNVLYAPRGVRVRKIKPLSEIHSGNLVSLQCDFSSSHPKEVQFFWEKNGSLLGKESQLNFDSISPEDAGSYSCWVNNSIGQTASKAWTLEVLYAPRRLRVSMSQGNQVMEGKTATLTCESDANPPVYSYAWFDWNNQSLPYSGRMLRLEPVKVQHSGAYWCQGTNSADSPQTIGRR

As to `C#CCOCCOCCO[C@]1(C(=O)O)C[C@H](O)[C@@H](NS(=O)(=O)NC)[C@H]([C@H](O)[C@H](O)CNC(=O)Cc2ccc(-c3ccc(O)cc3)cc2)O1` [Compound 225, (2R,4S,5R,6R)-6-((1R,2R)-1,2-dihydroxy-3-(2-(4′-hydroxy-[1,1′-biphenyl]-4-yl)acetamido)propyl)-4-hydroxy-5-((N-methylsulfamoyl)amino)-2-(2-(2-(prop-2-yn-1-yloxy)ethoxy)ethoxy)tetrahydro-2H-pyran-2-carboxylic acid], the Kd in test [1] was more than 10 µM; in test [2], more than 10 µM; on cynomolgus Siglec-2/CD22, more than 10000 nM.

On to `C#CCNC(=O)CCOCCOCCO[C@]1(c2nn[nH]n2)C[C@H](O)[C@@H](NC(=O)CO)[C@H]([C@H](O)[C@H](O)CNC(=O)Cc2ccc(Cl)cc2)O1` [Compound 226, 3-(2-(2-(((2R,4S,5R,6R)-6-((1R,2R)-3-(2-(4-chlorophenyl)acetamido)-1,2-dihydroxypropyl)-4-hydroxy-5-(2-hydroxyacetamido)-2-(2H-tetrazol-5-yl)tetrahydro-2H-pyran-2-yl)oxy)ethoxy)ethoxy)-N-(prop-2-yn-1-yl)propanamide], for which the Kd is more than 10 µM in test [1], more than 10 µM in test [2] and more than 10000 nM at cynomolgus Siglec-2/CD22.

Take `C#CCOCCOCCNc1c(NCCCCCCO[C@]2(C(=O)O)C[C@H](O)[C@@H](NC(=O)CO)[C@H]([C@H](O)[C@H](O)CNC(=O)c3cccc(Cl)c3)O2)c(=O)c1=O` [Compound 227, (2R,4S,5R,6R)-6-((1R,2R)-3-(3-chlorobenzamido)-1,2-dihydroxypropyl)-2-((6-((3,4-dioxo-2-((2-(2-(prop-2-yn-1-yloxy)ethoxy)ethyl)amino)cyclobut-1-en-1-yl)amino)hexyl)oxy)-4-hydroxy-5-(2-hydroxyacetamido)tetrahydro-2H-pyran-2-carboxylic acid]: the Kd is less than 1 µM in test [1], 1 to 10 µM in test [2] and less than 1000 nM at cynomolgus Siglec-2/CD22.

Turning to `CC(=O)NCCOCCOCCOCCOCCNC(=O)CCCCCO[C@]1(C(=O)O)C[C@H](O)[C@@H](NC(=O)CO)[C@H]([C@H](O)[C@H](O)CNC(=O)Cc2ccc(Cl)cc2)O1` [Compound 228, (2R,4S,5R,6R)-6-((1R,2R)-3-(2-(4-chlorophenyl)acetamido)-1,2-dihydroxypropyl)-2-((2,19-dioxo-6,9,12,15-tetraoxa-3,18-diazatetracosan-24-yl)oxy)-4-hydroxy-5-(2-hydroxyacetamido)tetrahydro-2H-pyran-2-carboxylic acid], the values for the Kd (in test [1]; in test [2]; at cynomolgus Siglec-2/CD22) were 1 to 10 µM, 1 to 10 µM and less than 1000 nM, respectively.

In the case of `C#CCOCCOCCNc1c(NCCCCCCO[C@]2(C(=O)O)C[C@H](O)[C@@H](NC(=O)CO)[C@H]([C@H](O)[C@H](O)CNC(=O)c3ccc(C(F)F)cc3)O2)c(=O)c1=O` [Compound 231, (2R,4S,5R,6R)-6-((1R,2R)-3-(4-(difluoromethyl)benzamido)-1,2-dihydroxypropyl)-2-((6-((3,4-dioxo-2-((2-(2-(prop-2-yn-1-yloxy)ethoxy)ethyl)amino)cyclobut-1-en-1-yl)amino)hexyl)oxy)-4-hydroxy-5-(2-hydroxyacetamido)tetrahydro-2H-pyran-2-carboxylic acid], the Kd was less than 1 µM in test [1], 1 to 10 µM in test [2] and less than 1000 nM on cynomolgus Siglec-2/CD22.

Consider `C#CCOCCOCCNc1c(NCCCCCCO[C@]2(C(=O)O)C[C@H](O)[C@@H](NC(=O)CO)[C@H]([C@H](O)[C@H](O)CNC(=O)c3ccc(F)cc3)O2)c(=O)c1=O` [Compound 232, (2R,4S,5R,6R)-2-((6-((3,4-dioxo-2-((2-(2-(prop-2-yn-1-yloxy)ethoxy)ethyl)amino)cyclobut-1-en-1-yl)amino)hexyl)oxy)-6-((1R,2R)-3-(4-fluorobenzamido)-1,2-dihydroxypropyl)-4-hydroxy-5-(2-hydroxyacetamido)tetrahydro-2H-pyran-2-carboxylic acid], for which the figures for the Kd (in test [1]; in test [2]; on cynomolgus Siglec-2/CD22) were 1 to 10 µM, more than 10 µM and 1000 to 10000 nM, respectively.

Consider `C#CCOCCOCCNc1c(NCCCCCCO[C@]2(C(=O)O)C[C@H](O)[C@@H](NC(=O)CO)[C@H]([C@H](O)[C@H](O)CNC(=O)c3cccc(C(F)F)c3)O2)c(=O)c1=O` [Compound 233, (2R,4S,5R,6R)-6-((1R,2R)-3-(3-(difluoromethyl)benzamido)-1,2-dihydroxypropyl)-2-((6-((3,4-dioxo-2-((2-(2-(prop-2-yn-1-yloxy)ethoxy)ethyl)amino)cyclobut-1-en-1-yl)amino)hexyl)oxy)-4-hydroxy-5-(2-hydroxyacetamido)tetrahydro-2H-pyran-2-carboxylic acid], for which the values for the Kd (in test [1]; in test [2]; at cynomolgus Siglec-2/CD22) were 1 to 10 µM, 1 to 10 µM and 1000 to 10000 nM, respectively.

Take `C#CCOCCOCCNc1c(NCCCCCCO[C@]2(C(=O)O)C[C@H](O)[C@@H](NC(=O)CO)[C@H]([C@H](O)[C@H](O)CNC(=O)c3cccc(F)c3)O2)c(=O)c1=O` [Compound 234, (2R,4S,5R,6R)-2-((6-((3,4-dioxo-2-((2-(2-(prop-2-yn-1-yloxy)ethoxy)ethyl)amino)cyclobut-1-en-1-yl)amino)hexyl)oxy)-6-((1R,2R)-3-(3-fluorobenzamido)-1,2-dihydroxypropyl)-4-hydroxy-5-(2-hydroxyacetamido)tetrahydro-2H-pyran-2-carboxylic acid]: the values for the Kd (in test [1]; in test [2]; on cynomolgus Siglec-2/CD22) were 1 to 10 µM, 1 to 10 µM and 1000 to 10000 nM, respectively.

For `CC(=O)NCCOCCOCCOCCOCCC(=O)NCCOCCOCCO[C@]1(C(=O)O)C[C@H](O)[C@@H](NC(=O)CO)[C@H]([C@H](O)[C@H](O)CNC(=O)Cc2ccc(-c3ccccc3)cc2)O1` [Compound 236, (2R,4S,5R,6R)-6-((1R,2R)-3-(2-([1,1′-biphenyl]-4-yl)acetamido)-1,2-dihydroxypropyl)-2-((2,18-dioxo-6,9,12,15,22,25-hexaoxa-3,19-diazaheptacosan-27-yl)oxy)-4-hydroxy-5-(2-hydroxyacetamido) tetrahydro-2H-pyran-2-carboxylic acid], the Kd in test [1] fell in the range of 1 to 10 µM; in test [2] it was 1 to 10 µM; on cynomolgus Siglec-2/CD22, 1000 to 10000 nM.

Regarding `CC(=O)NCCOCCOCCOCCOCCC(=O)NCCOCCOCCO[C@]1(C(=O)O)C[C@H](O)[C@@H](NC(=O)CO)[C@H]([C@H](O)[C@H](O)CNC(=O)Cc2ccc(Cl)cc2)O1` [Compound 237, (2R,4S,5R,6R)-6-((1R,2R)-3-(2-(4-chlorophenyl)acetamido)-1,2-dihydroxypropyl)-2-((2,18-dioxo-6,9,12,15,22,25-hexaoxa-3,19-diazaheptacosan-27-yl)oxy)-4-hydroxy-5-(2-hydroxyacetamido) tetrahydro-2H-pyran-2-carboxylic acid], the Kd in test [1] is 1 to 10 µM; in test [2] it was 1 to 10 µM; on cynomolgus Siglec-2/CD22, 1000 to 10000 nM.

For the molecule `CC(=O)NCCOCCOCCOCCOCCNC(=O)CCOCCO[C@]1(C(=O)O)C[C@H](O)[C@@H](NC(=O)CO)[C@H]([C@H](O)[C@H](O)CNC(=O)Cc2ccc(-c3ccccc3)cc2)O1` [Compound 238, (2R,4S,5R,6R)-6-((1R,2R)-3-(2-([1,1′-biphenyl]-4-yl)acetamido)-1,2-dihydroxypropyl)-2-((2,19-dioxo-6,9,12,15,22-pentaoxa-3,18-diazatetracosan-24-yl)oxy)-4-hydroxy-5-(2-hydroxyacetamido) tetrahydro-2H-pyran-2-carboxylic acid], the Kd lay in the range of 1 to 10 µM in test [1], 1 to 10 µM in test [2] and 1000 to 10000 nM on cynomolgus Siglec-2/CD22.
